Measured values as given in patent US8871751B2, “Compositions and methods relating to nuclear hormone and steroid hormone receptors including inhibitors of estrogen receptor alpha-mediated gene expression and inhibition of breast cancer” (The Board of Trustees of the University of Illinois, priority 2008, dated 2014).
pIC50: −log10 of the molar value. Where “and” joins values, the source holds several entries; their conditions need not be identical. Equal entries are not always repeated. Where two headings read alike, the source gives them in different places.

Legend:
ERα = target: T1, ERα (Homo sapiens, UniProt P03372); assay: (ERE)3-luciferase reporter gene assay in T47D-KBluc cells; type: cell-based; design: Using a stably transfected breast cancer cell line that expresses endogenous ERα; endogenous in cells; host or cells: T47D-KBluc
T1 sequence (P03372 1-595): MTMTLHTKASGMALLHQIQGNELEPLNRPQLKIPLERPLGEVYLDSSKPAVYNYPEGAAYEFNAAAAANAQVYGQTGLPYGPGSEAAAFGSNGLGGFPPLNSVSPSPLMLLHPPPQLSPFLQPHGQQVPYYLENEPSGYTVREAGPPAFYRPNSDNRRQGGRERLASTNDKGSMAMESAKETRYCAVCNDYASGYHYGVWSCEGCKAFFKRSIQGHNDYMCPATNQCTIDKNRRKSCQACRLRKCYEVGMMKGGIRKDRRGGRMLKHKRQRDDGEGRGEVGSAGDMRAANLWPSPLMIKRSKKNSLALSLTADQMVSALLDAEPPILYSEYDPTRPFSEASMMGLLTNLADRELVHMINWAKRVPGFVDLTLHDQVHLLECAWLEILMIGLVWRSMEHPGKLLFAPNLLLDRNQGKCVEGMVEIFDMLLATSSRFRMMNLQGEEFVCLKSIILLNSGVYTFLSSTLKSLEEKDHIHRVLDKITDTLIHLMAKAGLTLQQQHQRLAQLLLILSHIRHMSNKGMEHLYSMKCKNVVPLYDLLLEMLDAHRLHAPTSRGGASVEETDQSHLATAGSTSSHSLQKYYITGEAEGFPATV
Method: The T47D-KBluc cells stably express an (ERE)3-luciferase reporter gene (38). […] Four days before E2 induction, the cells were switched to the above medium, with 10% 2× charcoal-dextran-treated calf serum instead of FBS. 200,000 cells/well were transferred to each well of a 24-well plate. After 24 h the indicated concentrations of the test compounds were added in DMSO and E2 was added to 20 pM. After 24 h cells were washed once in PBS, and 150 μl 1× Passive Lysis Buffer (Promega, Madison Wis.) was used to lyse the cells. Luciferase activity was determined using firefly luciferase reagents from Promega (Madison, Wis.).
Reporter Gene Assays. […] AR was assayed in stably transfected HeLa cells and GR was assayed in stably transfected T47D cells maintained as described above. Four days before each experiment the cells were switched to medium containing CD-treated serum as described above. The HeLaAR cells were plated at 100,000 cells/well and the T47D/A1-2 and T47D-KBluc cells were plated at 200,000 cells/well in 1 ml of their respective media in 24-well plates. After 24 hours the indicated concentrations of E2, dihydrotestosterone (DHT) or dexamethasone (Dex) and DMSO vehicle, with or without TPSF, were added to each well. After 24 hours, the cells were washed once in phosphate buffered saline and lysed using 100 μl of 1× Passive Lysis Buffer (Promega, Madison Wis.). Luciferase activity was determined using BrightGlo firefly luciferase reagent from Promega (Madison, Wis.).

AR = target: T2, AR (Homo sapiens, UniProt P10275); assay: AR-mediated gene expression, PSA-luciferase reporter in stable HeLa-AR cells; type: cell-based; details: for pIC50: 24 h
T2 construct: expressed in transfected cells; host or cells: HeLa (HeLa-AR / HeLaAR)
T2 sequence (P10275 1-920): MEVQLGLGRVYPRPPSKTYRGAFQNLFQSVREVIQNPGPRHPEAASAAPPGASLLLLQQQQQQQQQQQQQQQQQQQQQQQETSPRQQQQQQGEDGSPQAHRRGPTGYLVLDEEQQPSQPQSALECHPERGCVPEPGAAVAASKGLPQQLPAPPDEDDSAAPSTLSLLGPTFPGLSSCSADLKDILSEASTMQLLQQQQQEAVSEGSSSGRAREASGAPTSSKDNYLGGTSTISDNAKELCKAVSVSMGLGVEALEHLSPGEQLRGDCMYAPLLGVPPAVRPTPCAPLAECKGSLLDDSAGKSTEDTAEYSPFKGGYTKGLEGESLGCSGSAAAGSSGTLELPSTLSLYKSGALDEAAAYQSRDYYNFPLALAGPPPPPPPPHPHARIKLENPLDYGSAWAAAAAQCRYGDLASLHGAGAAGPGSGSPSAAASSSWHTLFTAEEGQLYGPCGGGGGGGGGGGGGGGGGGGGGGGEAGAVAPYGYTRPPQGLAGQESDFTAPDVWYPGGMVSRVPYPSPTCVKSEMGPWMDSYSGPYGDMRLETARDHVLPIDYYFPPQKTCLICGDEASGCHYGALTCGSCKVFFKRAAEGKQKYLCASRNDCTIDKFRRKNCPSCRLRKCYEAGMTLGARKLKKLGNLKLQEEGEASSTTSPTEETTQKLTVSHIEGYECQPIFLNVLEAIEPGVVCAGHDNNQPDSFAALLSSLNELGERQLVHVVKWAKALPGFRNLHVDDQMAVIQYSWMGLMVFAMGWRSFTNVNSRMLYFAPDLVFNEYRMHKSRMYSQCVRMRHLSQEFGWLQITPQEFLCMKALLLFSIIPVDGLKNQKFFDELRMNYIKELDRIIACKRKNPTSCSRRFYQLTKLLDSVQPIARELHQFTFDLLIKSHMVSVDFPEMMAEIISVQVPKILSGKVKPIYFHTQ
Method: FIG. 9. Effect of some Theophylline-related compounds on AR-mediated gene expression in stable HeLa-AR cells. Assays were performed as described for ER in the legend to FIG. 4 and PR/GR in FIG. 5. The cells were incubated with 80 pM DHT and the indicated concentration of each small molecule. Luciferase activity was measured after 24 hours. The data represent the mean±SEM for 3 separate experiments at each concentration.
Reporter Gene Assays. TPSF was identified by reporter gene assays comparing the ability of ˜200 compounds structurally related to TPBM (see reference 19) to inhibit transcription of a stably transfected (ERE)3-luciferase reporter gene in T47D-KBluc breast cancer cells (20). AR was assayed in stably transfected HeLa cells and GR was assayed in stably transfected T47D cells maintained as described above. Four days before each experiment the cells were switched to medium containing CD-treated serum as described above. The HeLaAR cells were plated at 100,000 cells/well and the T47D/A1-2 and T47D-KBluc cells were plated at 200,000 cells/well in 1 ml of their respective media in 24-well plates. After 24 hours the indicated concentrations of E2, dihydrotestosterone (DHT) or dexamethasone (Dex) and DMSO vehicle, with or without TPSF, were added to each well. After 24 hours, the cells were washed once in phosphate buffered saline and lysed using 100 μl of 1× Passive Lysis Buffer (Promega, Madison Wis.). Luciferase activity was determined using BrightGlo firefly luciferase reagent from Promega (Madison, Wis.).

[1] = T47D-KBluc cells, 20 pM E2, 24 h, read-out: IC50 for inhibition of E2 dependent ERα transactivation, (ERE)3-luciferase
[2] = HeLa-AR cells, 80 pM DHT, read-out: AR-IC50

Structure (SMILES) | pIC50 (ERα; [1]) | ER at 10 μM (ERα) | AR at 10 μM (AR) | pIC50 (AR; [2]) | other results
CCCSc1nc2c([nH]1)c(=O)n(C)c(=S)n2C [Compound 95869, 1,3-Dimethyl-8-propylsulfanyl-2-thioxo-1,2,3,7-tetrahydro-purin-6-one] | – | 20 | 90 | 6.00 | –
Cn1c(=O)c2[nH]c(SC3CCCCC3)nc2n(C)c1=S [Compound 95899, 8-Cyclohexylsulfanyl-1,3-dimethyl-2-thioxo-1,2,3,7-tetrahydro-purin-6-one] | – | 36 | 88 | 5.60 | –
Cn1c(=O)c2[nH]c(C3CC4CCC3C4)nc2n(C)c1=O (stereo not drawn) [Compound 101807, 8-Bicyclo[2.2.1]hept-2-yl-1,3-dimethyl-3,7-dihydro-purine-2,6-dione] | – | 0 | 50 | 5.30 | –
Cn1c(=S)c2[nH]c(SCCCC(=O)c3ccc(F)cc3)nc2n(C)c1=O [TPSF, Butyrophenone, p-fluoro-4-(1,2,3,6,-tetrahydro-1,3-dimethyl-2-oxo-6-thionopurin-8-ylthio)] | – | – | – | – | concentrations necessary to inhibit AR and GR relative to average IC50 for the two ER-regulated genes (higher) (ERα): 20-70 fold; potency as ERα inhibitor relative to TPBM (more potent) (ERα): > 15 fold; pIC50 (ERα; PI-9 in MCF-7 and (ERE)3-Luc in T47D, read-out: average IC50 for inhibition of the two ER-regulated genes): 6.35; pIC50 (AR; stably transfected HeLa cells, 1 μM DHT, read-out: IC50 for inhibition of AR gene expression (PSA-Luc)): 4.48 and 4.47

More lines, main results first:

pIC50 (ERα; [1]) | ER at 10 μM (ERα) | AR at 10 μM (AR) | pIC50 (AR; [2]) | Structure (SMILES) | other results
4.66 | – | – | – | CN1CCC(C#N)c2ccccc21 (stereo not drawn) [Compound 1529] | –
6.10 | – | – | – | CN(C)CCCn1c2c3ccccc3ccc2c2oc(=O)c3ccccc3c21 [Compound 638432] | –
